The record followed here is publication doi:10.1101/2023.11.24.568596v1 (biorxiv, 2023).

SMILES strings stand for the structures.

Some targets named below: BRD4 (Homo sapiens, UniProt O60885); CaMK1d (Homo sapiens, UniProt Q8IU85); NEK7 (Homo sapiens, UniProt Q8TDX7); PAK1 (Homo sapiens, UniProt Q13153).
Common to all, as to details: binder
In the next experiment the target is T1, MARK4 (Homo sapiens, UniProt Q96L34).
T1 sequence (Q96L34 1-752): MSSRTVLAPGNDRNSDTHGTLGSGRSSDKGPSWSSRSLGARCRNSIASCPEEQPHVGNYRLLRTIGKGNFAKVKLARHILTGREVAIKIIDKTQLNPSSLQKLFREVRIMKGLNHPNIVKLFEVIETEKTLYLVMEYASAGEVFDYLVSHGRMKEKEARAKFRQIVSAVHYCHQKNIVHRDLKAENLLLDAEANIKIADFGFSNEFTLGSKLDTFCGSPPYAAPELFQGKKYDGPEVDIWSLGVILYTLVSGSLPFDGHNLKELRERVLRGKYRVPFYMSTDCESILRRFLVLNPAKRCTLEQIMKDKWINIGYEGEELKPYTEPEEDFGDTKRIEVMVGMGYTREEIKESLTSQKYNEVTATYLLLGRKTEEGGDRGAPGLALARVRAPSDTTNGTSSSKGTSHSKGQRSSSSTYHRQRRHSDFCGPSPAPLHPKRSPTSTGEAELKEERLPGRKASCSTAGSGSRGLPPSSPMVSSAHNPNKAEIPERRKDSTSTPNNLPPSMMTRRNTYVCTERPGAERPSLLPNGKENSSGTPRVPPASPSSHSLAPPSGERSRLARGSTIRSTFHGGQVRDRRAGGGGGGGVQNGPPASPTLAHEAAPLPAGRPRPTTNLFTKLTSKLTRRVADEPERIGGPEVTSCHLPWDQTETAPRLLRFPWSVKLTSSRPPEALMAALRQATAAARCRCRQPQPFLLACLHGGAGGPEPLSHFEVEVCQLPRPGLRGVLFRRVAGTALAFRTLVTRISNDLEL

In another experiment the target is T2, MST1 (Homo sapiens, UniProt Q13043).
T2 sequence (Q13043 1-487): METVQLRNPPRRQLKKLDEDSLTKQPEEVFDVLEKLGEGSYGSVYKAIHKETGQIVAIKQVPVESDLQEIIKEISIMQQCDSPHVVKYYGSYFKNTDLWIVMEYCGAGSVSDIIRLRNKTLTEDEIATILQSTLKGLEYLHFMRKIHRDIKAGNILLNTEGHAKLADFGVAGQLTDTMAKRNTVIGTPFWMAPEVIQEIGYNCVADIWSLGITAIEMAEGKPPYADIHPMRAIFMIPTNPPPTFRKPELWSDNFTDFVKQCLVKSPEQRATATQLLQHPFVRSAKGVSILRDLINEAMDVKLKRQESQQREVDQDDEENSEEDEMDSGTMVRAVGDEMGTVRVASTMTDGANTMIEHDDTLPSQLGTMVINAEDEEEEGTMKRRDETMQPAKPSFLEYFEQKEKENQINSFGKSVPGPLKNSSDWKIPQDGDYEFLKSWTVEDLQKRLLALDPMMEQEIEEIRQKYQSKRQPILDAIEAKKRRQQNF

In the next experiment the target is T3, NEK1 (Homo sapiens, UniProt Q96PY6).
T3 sequence (Q96PY6 1-1258): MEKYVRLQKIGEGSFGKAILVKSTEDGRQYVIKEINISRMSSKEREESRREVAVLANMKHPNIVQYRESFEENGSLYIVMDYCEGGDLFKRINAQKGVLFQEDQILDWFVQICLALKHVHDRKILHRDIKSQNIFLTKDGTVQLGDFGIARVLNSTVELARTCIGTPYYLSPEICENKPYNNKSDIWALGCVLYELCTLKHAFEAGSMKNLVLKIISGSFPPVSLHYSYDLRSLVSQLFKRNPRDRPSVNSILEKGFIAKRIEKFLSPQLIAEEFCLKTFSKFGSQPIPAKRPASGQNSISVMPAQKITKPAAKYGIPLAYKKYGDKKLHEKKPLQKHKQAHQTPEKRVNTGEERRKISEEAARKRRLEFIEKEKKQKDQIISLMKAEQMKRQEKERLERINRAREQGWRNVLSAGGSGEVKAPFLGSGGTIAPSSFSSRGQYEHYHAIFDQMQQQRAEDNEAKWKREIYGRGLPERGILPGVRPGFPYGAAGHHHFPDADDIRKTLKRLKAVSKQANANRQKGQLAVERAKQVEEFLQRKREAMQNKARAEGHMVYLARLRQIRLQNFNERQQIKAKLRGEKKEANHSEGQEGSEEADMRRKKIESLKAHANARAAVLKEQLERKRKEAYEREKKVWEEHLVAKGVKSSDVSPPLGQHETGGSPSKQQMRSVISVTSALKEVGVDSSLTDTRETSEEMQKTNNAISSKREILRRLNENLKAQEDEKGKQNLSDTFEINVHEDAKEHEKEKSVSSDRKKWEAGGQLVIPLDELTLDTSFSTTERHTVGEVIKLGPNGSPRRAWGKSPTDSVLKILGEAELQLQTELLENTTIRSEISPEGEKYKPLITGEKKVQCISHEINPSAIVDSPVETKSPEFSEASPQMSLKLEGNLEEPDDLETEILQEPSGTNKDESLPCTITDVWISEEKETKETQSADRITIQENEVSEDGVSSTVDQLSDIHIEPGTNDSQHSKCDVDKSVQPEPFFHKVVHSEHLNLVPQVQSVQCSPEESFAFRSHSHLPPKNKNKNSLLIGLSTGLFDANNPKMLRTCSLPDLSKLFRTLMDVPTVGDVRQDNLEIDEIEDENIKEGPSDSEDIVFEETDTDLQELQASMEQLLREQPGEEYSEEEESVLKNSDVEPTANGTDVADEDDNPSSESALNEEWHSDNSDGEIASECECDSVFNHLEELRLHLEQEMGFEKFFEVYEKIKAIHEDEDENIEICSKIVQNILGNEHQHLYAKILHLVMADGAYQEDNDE

Sequence of PAK1 (Q13153 whole entry): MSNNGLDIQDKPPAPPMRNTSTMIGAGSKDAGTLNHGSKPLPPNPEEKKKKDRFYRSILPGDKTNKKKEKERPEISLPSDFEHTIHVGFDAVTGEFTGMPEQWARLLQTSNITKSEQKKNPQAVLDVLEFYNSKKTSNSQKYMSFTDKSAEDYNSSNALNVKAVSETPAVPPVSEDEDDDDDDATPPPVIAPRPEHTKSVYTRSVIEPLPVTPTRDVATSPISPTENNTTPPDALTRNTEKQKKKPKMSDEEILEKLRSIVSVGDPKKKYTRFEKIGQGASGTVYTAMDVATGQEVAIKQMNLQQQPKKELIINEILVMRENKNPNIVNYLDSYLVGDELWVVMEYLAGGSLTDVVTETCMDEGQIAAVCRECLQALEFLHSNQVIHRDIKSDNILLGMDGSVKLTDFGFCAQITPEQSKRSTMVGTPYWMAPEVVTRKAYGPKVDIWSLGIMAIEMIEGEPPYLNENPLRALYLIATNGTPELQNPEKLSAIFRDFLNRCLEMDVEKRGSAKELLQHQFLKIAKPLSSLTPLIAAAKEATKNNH
Sequence of CaMK1d (Q8IU85 whole entry): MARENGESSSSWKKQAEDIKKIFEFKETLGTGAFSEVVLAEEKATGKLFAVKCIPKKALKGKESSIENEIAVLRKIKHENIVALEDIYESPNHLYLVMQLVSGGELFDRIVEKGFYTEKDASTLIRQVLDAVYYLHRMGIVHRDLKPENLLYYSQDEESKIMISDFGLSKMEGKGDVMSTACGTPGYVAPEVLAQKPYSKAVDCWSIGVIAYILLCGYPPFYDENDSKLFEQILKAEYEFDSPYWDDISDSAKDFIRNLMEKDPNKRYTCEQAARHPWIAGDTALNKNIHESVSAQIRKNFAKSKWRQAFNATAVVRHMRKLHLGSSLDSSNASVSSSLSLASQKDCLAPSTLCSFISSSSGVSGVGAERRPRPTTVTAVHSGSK
Sequence of NEK7 (Q8TDX7 whole entry): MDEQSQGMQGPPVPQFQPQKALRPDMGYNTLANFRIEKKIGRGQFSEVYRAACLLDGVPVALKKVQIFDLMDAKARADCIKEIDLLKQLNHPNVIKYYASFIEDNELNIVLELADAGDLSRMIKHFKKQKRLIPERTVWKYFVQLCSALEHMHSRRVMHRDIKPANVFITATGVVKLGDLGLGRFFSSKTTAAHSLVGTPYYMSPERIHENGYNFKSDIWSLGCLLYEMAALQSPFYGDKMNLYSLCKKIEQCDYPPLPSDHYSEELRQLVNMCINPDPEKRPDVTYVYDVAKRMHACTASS

Turning to `Cc1cccc(-c2ccc(-c3cc4cnc(NCCCc5ccc(N)cc5)nc4n(CCCCN)c3=O)c(Cl)c2)n1` [compound 25, 8-(4-Aminobutyl)-2-((3-(4-aminophenyl)propyl)amino)-6-(2-chloro-4-(6-methylpyridin-2-yl)phenyl)pyrido[2,3-d]pyrimidin-7(8H)-one], the “ΔTm 25” value on BRD4 was -2.9 °C; on CaMK1d, 5.3 °C; on MARK4 it was 5.8 °C; on MST1, -1.4 °C; at NEK1, -1.2 °C; on NEK7, -0.5 °C. Besides, at PAK1, the “ΔTm 25” value turned out to be 8.3 °C.
On to `Cc1cccc(-c2ccc(-c3cc4cnc(NC(CO)CO)nc4n(CCCCN)c3=O)c(Cl)c2)n1` [compound 24, 8-(4-Aminobutyl)-6-(2-chloro-4-(6-methylpyridin-2-yl)phenyl)-2-((1,3-dihydroxypropan-2-yl)amino)pyrido[2,3-d]pyrimidin-7(8H)-one], for which the “ΔTm MR24 (24)” value at BRD4 was -1.7 °C; on CaMK1d it was 0.5 °C; at MARK4, 3.3 °C; on MST1, -0.6 °C; on NEK1, 0.0 °C; on NEK7, -0.9 °C. Also, on PAK1, the “ΔTm MR24 (24)” value was 6.9 °C.
As for `CNc1ncc2cc(-c3ccc(-c4cccc(C)n4)cc3Cl)c(=O)n(C[C@H]3CC[C@H](N)CC3)c2n1` [compound 23, 23], the “ΔTm 23” value was -1.1 °C on BRD4; 9.5 °C at CaMK1d; 12.7 °C on MARK4; 7.9 °C at MST1; -2.7 °C on NEK1; -0.3 °C at NEK7. Also, on PAK1, the “ΔTm 23” value worked out at 8.9 °C.
`Cc1cccc(-c2ccc(-c3cc4cnc(NCCCN5CCOCC5)nc4n(CCCCN)c3=O)c(Cl)c2)n1` [compound 26, MR26]: the “ΔTm MR26 (26)” value was -1.2 °C at BRD4; 4.1 °C at CaMK1d; 3.7 °C at MARK4; -0.5 °C on MST1; 0.1 °C on NEK1; -0.7 °C on NEK7. Also, at PAK1, the “ΔTm MR26 (26)” value turned out to be 5.7 °C.
For `CNc1ncc2cc(-c3ccc(-c4cccc(C)n4)cc3Cl)c(=O)n(CCC3CCNCC3)c2n1` [compound 22, 6-(2-Chloro-4-(6-methylpyridin-2-yl)phenyl)-2-(methylamino)-8-(2-(piperidin-4-yl)ethyl)pyrido[2,3-d]pyrimidin-7(8H)-one], the “ΔTm 22” value was 0.0 °C on BRD4; 8.5 °C on CaMK1d; 5.8 °C at MARK4; 6.0 °C on MST1; -2.0 °C at NEK1; 0.2 °C at NEK7. The “ΔTm 22” value at PAK1 stood at 8.6 °C.
Regarding `CNc1ncc2cc(-c3ccc(-c4cccc(C)n4)cc3Cl)c(=O)n(CCCCN)c2n1` [compound 20, MRLW5], the “ΔTm MRLW5 (20)” value at BRD4 is -0.7 °C; on CaMK1d it was 7.2 °C; on MARK4 it was 8.2 °C; at MST1, 5.6 °C; at NEK1, -1.9 °C; on NEK7, -0.1 °C. Further, the “ΔTm MRLW5 (20)” value on PAK1 is 7.5 °C.
